According to patent US4889857A, “Quinolonecarboxylic acid compounds and pharmaceutical use thereof” (Yoshitomi Pharmaceutical Industries, Ltd., priority 1987, dated 1989):
In brackets after ≈: the same amount, converted by molar mass.

Columns and labels:
S. pneumoniae Type III = assay: Protective effect against experimental infection in mice; type: in vivo; settings: oral, 1 h after i.p. inoculation of 6.0 × 10^2 cells/mouse [12 LD50]; survival day 7; 95% confidence limit
Procedure: (§1) Experimental infection was caused by inoculating male mice intraperitoneally with each organism. Each of the test compounds was administered orally to the mice, one hour after the inoculation. The therapeutic effect of each compounds was judged by using a 50% effective dose (ED50) from the survival rate on day 7 after injection by the Probit method as described in Proc. Soc. Exp. Biol. Med., Vol. 57, p.261-264, 1944. The Minimum inhibitory concentrations (MIC) were also measured.
(§2) (The overnight cultures of test organisms with an asterisk (*) were
(§3) diluted with 50% mucin and 0.5 ml of each was injected intraperitoneally
(§4) into mice. A double asterisk (**) means a 95% confidence limit. MRSA mean
(§5) methycillinresistant Staphylococcus aureus.)

E. coli KC-14 [1] = assay: as above; type: in vivo; settings: oral, 1 h after i.p. inoculation of 5.75 × 10^4 cells/mouse [488 LD50] with mucin; survival day 7; 95% confidence limit
Procedure: as §1, §2, §3, §4, §5

S. aureus Smith [2] = assay: as above; type: in vivo; settings: oral, 1 h after i.p. inoculation of 2.13 × 10^6 cells/mouse [792 LD50] with mucin; survival day 7; 95% confidence limit
Procedure: as §1, §2, §3, §4, §5

S. pyogenes C-203 = assay: as above; type: in vivo; settings: oral, 1 h after i.p. inoculation of 4.42 × 10^4 cells/mouse [680 LD50]; survival day 7; 95% confidence limit
Procedure: as §1, §2, §3, §4, §5

S. aureus 109(MRSA) = assay: as above; type: in vivo; settings: oral, 1 h after i.p. inoculation of 4.93 × 10^8 cells/mouse [5.7 LD50] with mucin; survival day 7; 95% confidence limit
Procedure: as §1, §2, §3, §4, §5

[3] = test system: Staphylococcus aureus FDA 209P*; assay: Antibacterial activity in vitro (MIC), horse blood medium; type: cell-based; settings: FDA209P
Procedure: (§6) The antibacterial activities in vitro (minimum inhibitory concentration, MIC, μg/ml) of the test compounds were measured according to the standard method of the Japanese Chemotherapy Society (Chemotherapy, Vol. 23, p.1126, 1974).
(§7) (Inoculum size: 10^6 cells/ml, Organisms with asterisk (*) were
(§8) cultivated in a 10% horse bloodadded medium.)

E. coli KC-14 [4] = assay: MIC of the infecting organism (Experiment 2); type: cell-based; settings: Escherichia coli, KC14
Procedure: as §1

S. aureus Smith [5] = assay: MIC of the infecting organism (Experiment 2); type: cell-based; settings: Staphylococcus aureus
Procedure: as §1

[6] = test system: Bacillus subtilis PCT 219; assay: Antibacterial activity in vitro (MIC); type: cell-based; settings: PCT219
Procedure: as §6, §7, §8

[7] = test system: Serratia marcescens IFO 12648; assay: Antibacterial activity in vitro (MIC); type: cell-based; settings: IFO12648
Procedure: as §6, §7, §8

[8] = test system: Citrobacter freundii IFO 12681; assay: Antibacterial activity in vitro (MIC); type: cell-based; settings: IFO12681, inoculum 10^6 cells/ml
Procedure: as §6, §7, §8

[9] = test system: Proteus mirabilis IFO 3849; assay: Antibacterial activity in vitro (MIC); type: cell-based; settings: IFO3849
Procedure: as §6, §7, §8

Shigella flexneri EW-10 = assay: Antibacterial activity in vitro (MIC); type: cell-based; settings: EW10, inoculum 10^6 cells/ml
Procedure: as §6, §7, §8

[10] = test system: Staphylococcus aureus FDA 209P; assay: Antibacterial activity in vitro (MIC); type: cell-based; settings: FDA209P
Procedure: as §6, §7, §8

[11] = test system: Pediococcus damnosus IFO 3895; assay: Antibacterial activity in vitro (MIC); type: cell-based; settings: IFO3895
Procedure: as §6, §7, §8

Shigella sonnei EW-33 = assay: Antibacterial activity in vitro (MIC); type: cell-based; settings: EW33, inoculum 10^6 cells/ml
Procedure: as §6, §7, §8

[12] = test system: Streptococcus sp. IFO 3535; assay: Antibacterial activity in vitro (MIC); type: cell-based; settings: IFO3535
Procedure: as §6, §7, §8

[13] = test system: Escherichia coli NIHJ JC-2; assay: Antibacterial activity in vitro (MIC); type: cell-based; settings: NIHJJC2
Procedure: as §6, §7, §8

[14] = test system: Acinetobacter calcoaceticus ATCC 13006; assay: Antibacterial activity in vitro (MIC); type: cell-based; settings: ATCC13006
Procedure: as §6, §7, §8

[15] = test system: Pseudomonas aeruginosa U-31; assay: Antibacterial activity in vitro (MIC); type: cell-based; settings: U31
Procedure: as §6, §7, §8

[16] = test system: Morganella morganii IFO 3168; assay: Antibacterial activity in vitro (MIC); type: cell-based; settings: IFO3168
Procedure: as §6, §7, §8

Escherichia coli O-111 = assay: Antibacterial activity in vitro (MIC); type: cell-based; settings: O111, inoculum 10^6 cells/ml
Procedure: as §6, §7, §8

Klebsiella pneumoniae DT = assay: Antibacterial activity in vitro (MIC); type: cell-based
Procedure: as §6, §7, §8

Escherichia coli T-7 = assay: Antibacterial activity in vitro (MIC); type: cell-based; settings: T7, inoculum 10^6 cells/ml
Procedure: as §6, §7, §8

[17] = test system: Corynebacterium diphtheriae Tronto; assay: Antibacterial activity in vitro (MIC); type: cell-based
Procedure: as §6, §7, §8

[18] = test system: Pseudomonas putida IFO 12996; assay: Antibacterial activity in vitro (MIC); type: cell-based; settings: IFO12996
Procedure: as §6, §7, §8

[19] = test system: Xanthomonas maltophilia IFO 12690; assay: Antibacterial activity in vitro (MIC); type: cell-based; settings: Stenotrophomonas maltophilia, IFO12690; inoculum 10^6 cells/ml
Procedure: as §6, §7, §8

[20] = test system: Staphylococcus epidermidis ATCC 12228; assay: Antibacterial activity in vitro (MIC); type: cell-based; settings: ATCC12228
Procedure: as §6, §7, §8

[21] = test system: Streptococcus viridans America; assay: Antibacterial activity in vitro (MIC); type: cell-based
Procedure: as §6, §7, §8

[22] = test system: Staphylococcus aureus 1840; assay: Antibacterial activity in vitro (MIC); type: cell-based
Procedure: as §6, §7, §8

[23] = test system: Streptococcus lactis IFO 12546; assay: Antibacterial activity in vitro (MIC); type: cell-based; settings: Lactococcus lactis, IFO12546
Procedure: as §6, §7, §8

[24] = test system: Proteus vulgaris IFO 3988; assay: Antibacterial activity in vitro (MIC); type: cell-based; settings: IFO3988
Procedure: as §6, §7, §8

[25] = test system: Pseudomonas aeruginosa IFO 12582; assay: Antibacterial activity in vitro (MIC); type: cell-based; settings: IFO12582
Procedure: as §6, §7, §8

[26] = test system: Shigella typhosa Boxhill-58; assay: Antibacterial activity in vitro (MIC); type: cell-based
Procedure: as §6, §7, §8

In the case of `O=C(O)c1cn(C2CC2)c2cc(N3CCNCC3)c(F)cc2c1=O` [CPFX, 1-cyclopropyl-6-fluoro-1,4-dihydro-7-(1-piperazinyl)-4-oxoquinoline-3-carboxylic acid], the ED50 (S. pneumoniae Type III) is reported as > 2 mg/mouse, the ED50 (E. coli KC-14 [1]) is reported as 0.011(0.008-0.015) mg/mouse and the ED50 (S. aureus Smith [2]) is reported as 0.325(0.232-0.453) mg/mouse. The ED50 (S. pyogenes C-203) was > 2 mg/mouse, the ED50 (S. aureus 109(MRSA)) was 1.163(0.460-1.660) mg/mouse and the MIC [3] was 0.2 µg/mL (≈ 0.604 µM). For the same compound, the MIC (E. coli KC-14 [4]) was ≤ 0.006 µg/mL, the MIC (S. aureus Smith [5]) was 0.1 µg/mL and the MIC [6] was 0.025 µg/mL (≈ 0.0754 µM). The MIC [7] was 0.1 µg/mL (≈ 0.302 µM), the MIC [8] was 0.012 µg/mL (≈ 0.0362 µM) and the MIC [9] was 0.1 µg/mL (≈ 0.302 µM). For the same compound, the MIC (Shigella flexneri EW-10) was 0.012 µg/mL (≈ 0.0362 µM), the MIC [10] was 0.2 µg/mL (≈ 0.604 µM) and the MIC [11] was 0.1 µg/mL (≈ 0.302 µM). The MIC (Shigella sonnei EW-33) was ≤ 0.006 µg/mL, the MIC [12] was 3.13 µg/mL (≈ 9.45 µM) and the MIC [13] was 0.025 µg/mL (≈ 0.0754 µM). The MIC [14] was 0.1 µg/mL (≈ 0.302 µM), the MIC [15] was 0.2 µg/mL (≈ 0.604 µM) and the MIC [16] was 0.025 µg/mL (≈ 0.0754 µM). For the same compound, the MIC (Escherichia coli O-111) was 0.012 µg/mL (≈ 0.0362 µM), the MIC (Klebsiella pneumoniae DT) was 0.025 µg/mL (≈ 0.0754 µM) and the MIC (Escherichia coli T-7) was 0.012 µg/mL (≈ 0.0362 µM). It also gave an MIC [17] of 0.1 µg/mL (≈ 0.302 µM), an MIC [18] of 0.1 µg/mL (≈ 0.302 µM) and an MIC [19] of 0.05 µg/mL (≈ 0.151 µM). The MIC [20] was 0.2 µg/mL (≈ 0.604 µM), the MIC [21] was 3.13 µg/mL (≈ 9.45 µM) and the MIC [22] was 3.13 µg/mL (≈ 9.45 µM). It also gave an MIC [23] of 3.13 µg/mL (≈ 9.45 µM), an MIC [24] of 0.05 µg/mL (≈ 0.151 µM) and an MIC [25] of 0.2 µg/mL (≈ 0.604 µM). For the same compound, the MIC [26] was ≤ 0.006 µg/mL.
